Experimental data reported in patent publication US4737504A, “5-fluoro-and 8-fluoro-trimetoquinol compounds and the processes for their preparation” (priority 1986, dated 1988).
Read-outs that look alike come from different tables or passages of the source.

Key:
[1] = target: T1, U46619-induced contractions of rat thoracic aorta (Rattus norvegicus, UniProt P34978); assay: antagonism of U46619-induced contractions of rat thoracic aorta; assay type: cell-based, rat (male Sprague-Dawley); conditions: no analog (None); n = 16; read-out: pD2 of U46619 (control) (converted)
T1 construct: A 2-3 cm segment of thoracic aorta was excised; tissue Harlan Industries, Inc., Cumberland, IN (animals); host or cells: rat thoracic aorta, spirally cut strips
T1 sequence (P34978 1-341): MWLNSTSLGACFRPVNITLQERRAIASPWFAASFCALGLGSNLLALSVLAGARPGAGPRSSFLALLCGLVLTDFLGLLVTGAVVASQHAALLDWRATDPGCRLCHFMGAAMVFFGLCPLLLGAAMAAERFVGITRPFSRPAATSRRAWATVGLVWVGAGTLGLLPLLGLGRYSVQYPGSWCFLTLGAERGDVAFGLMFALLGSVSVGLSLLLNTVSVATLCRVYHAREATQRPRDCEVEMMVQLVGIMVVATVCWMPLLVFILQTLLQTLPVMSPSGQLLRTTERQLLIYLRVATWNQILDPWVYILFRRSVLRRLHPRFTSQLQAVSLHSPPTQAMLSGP
Description: The vasoconstrictive activity of U46619 (a stable thromboxane A2 agonist) on thoracic aorta tissue was determined as follows: Male Sprague-Dawley rats (Harlan Industries, Inc., Cumberland, IN) weighing between 250 and 350 gm were stunned and killed by cervical dislocation. A 2-3 cm segment of thoracic aorta was excised, cleaned of any adhering fat and connecting tissue, spirally cut into 2 matched strips, Constantine, supra. (2.0×0.3 cm). Strips were mounted in 10 ml tissue baths filled with the physiological salt solution in which 3×10^-6 M indomethaecin was present. A tension of 1 gm was applied to the strips. Responses of the tissues to drugs were monitored via Grass FT-03 isometric force transducers connected to a Grass Model 7C polygraph (Grass Instruments Co., Quincy, MA).
Some experiments were done in the absence of indomethacin. Concentration-dependent responses to U46619 were constructed in each preparation as described by Van Rossum, supra.
Effective concentration-50 (EC50) values of the agonists were determined graphically from individual plots of percent response versus log concentration. The potency of each agonist was expressed as a pD2 value where pD2 is equal to the negative logarithm of the experimentally determined EC50 value.
Antagonists were quantitated by calculating their pKB or pA2 values according to the methods of Furchgott, Ann. N.Y. Acad. Sci., 139: 553-570 (1967) and Arunlakshana et al., Br. J. Pharmacol., 14: 48-58 (1959). The pKB value is equivalent to the -log of [I]/(CR-1), where pKB is the negative logarithm of the apparent dissociation constant of the antagonist (KB), [I] is the concentration of the antagonist, and CR is the concentration ratio of the agonist EC50 in the presence of antagonist to the agonist EC50 in the absence of antagonist. To determine significant differences between pD2, pKB or pA2 values, a 5% level of significance was used. Arunlakshana plots were analyzed by computer according to the method of Tallarida et al., Manual of Pharmacological Calculations With Computer Programs, 29-31, (1981).

[2] = test system: adrenergic receptors; conditions: background; cited from earlier work
[3] = cited from earlier work
[4] = background; cited from earlier work
[5] = target: T2, β2-adrenoceptors (guinea pig trachea) (Cavia porcellus, UniProt Q8K4Z4); assay: relaxation of carbachol-contracted guinea pig tracheal strips (β2-adrenergic activity); assay type: cell-based, guinea pig (male albino Hartley)
T2 construct: the atria and trachea were quickly removed by standard procedures; tissue Glenn Carr, Columbus, OH (animals); host or cells: guinea pig trachea, spirally cut strips
T2 sequence (Q8K4Z4 whole entry): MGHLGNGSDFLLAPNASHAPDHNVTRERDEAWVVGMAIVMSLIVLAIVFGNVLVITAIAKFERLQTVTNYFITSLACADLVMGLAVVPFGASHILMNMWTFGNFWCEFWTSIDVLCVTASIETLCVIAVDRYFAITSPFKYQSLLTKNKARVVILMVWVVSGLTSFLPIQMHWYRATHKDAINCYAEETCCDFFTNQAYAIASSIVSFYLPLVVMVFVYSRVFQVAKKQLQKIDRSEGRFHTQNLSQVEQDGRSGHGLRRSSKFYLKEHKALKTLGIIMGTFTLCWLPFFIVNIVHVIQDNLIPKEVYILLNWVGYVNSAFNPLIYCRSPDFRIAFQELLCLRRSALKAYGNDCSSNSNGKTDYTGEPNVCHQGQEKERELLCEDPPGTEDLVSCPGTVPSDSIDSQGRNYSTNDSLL
Description: (§1) The β2 /β1 -adrenergic activity was determined using the following procedure: Male albino Hartley guinea pigs were employed in all experiments. The isolation and procedures for testing of each compound (10^-9 to 3×10^-5 M) with isolated guinea pig atria and trachea were identical with those described by Sober et al., J. Med. Chem., 24: 970, 1981.
Male guinea pigs (Hartley strain, Glenn Carr, Columbus, OH) weighing between 400 and 700 grams were reserpinized (5 mg/kg, i.p.) 12-16 hours before experiments. Animals were sacrificed by a sharp blow to the head and the atria and trachea were quickly removed by standard procedures (The Staff, University of Edinburgh, "Pharmacological Experiments on Isolated Preparation", Livingston, London, pp. 104-111, 1970). Trachea were spirally cut into 2 to 4 matched strips (Constantine, J. Pharm. Pharmac., 17: 34-35, 1965). Spontaneously beating atria and tracheal strips were mounted in 10 ml tissue baths filled with Krebs-Heinsleit solution (millimolar concentrations: NaCl, 118; KCl, 4.7; CaCl2 -2H2 O, 2.5; MgCl2 -6H2 O, 5.0; NaH2 PO4 H2 O, 1.0; NaHCO3, […]; and dextrose, 11) warmed to 37° C. and bubbled with 95% O2 :5% CO2. Tensions of 1 and 3 gm were applied to the atria and trachea, respectively.
Following a minimum 1 hour equilibration period, a concentration of 3×10^-7 M carbachol was administered to the strips.
(§2) Each drug concentration was added only after the effects of the previous concentration reached a maximum and remained constant. […] Responses for agonists were expressed as pD2 values (-log EC50) values and were calculated directly from graphical plots of % maximal response versus log molar drug concentration.

[6] = target: T3, β1-adrenoceptors (guinea pig atria) (Cavia porcellus, UniProt H0W3H1); assay: chronotropic response of spontaneously beating guinea pig right atria (β1-adrenergic activity); assay type: cell-based, guinea pig (male albino Hartley); conditions: read-out: IAR ± SEM (intrinsic activity ratio)
T3 construct: the atria and trachea were quickly removed by standard procedures; tissue Glenn Carr, Columbus, OH (animals); host or cells: guinea pig right atria, spontaneously beating
T3 sequence (H0W3H1 1-470): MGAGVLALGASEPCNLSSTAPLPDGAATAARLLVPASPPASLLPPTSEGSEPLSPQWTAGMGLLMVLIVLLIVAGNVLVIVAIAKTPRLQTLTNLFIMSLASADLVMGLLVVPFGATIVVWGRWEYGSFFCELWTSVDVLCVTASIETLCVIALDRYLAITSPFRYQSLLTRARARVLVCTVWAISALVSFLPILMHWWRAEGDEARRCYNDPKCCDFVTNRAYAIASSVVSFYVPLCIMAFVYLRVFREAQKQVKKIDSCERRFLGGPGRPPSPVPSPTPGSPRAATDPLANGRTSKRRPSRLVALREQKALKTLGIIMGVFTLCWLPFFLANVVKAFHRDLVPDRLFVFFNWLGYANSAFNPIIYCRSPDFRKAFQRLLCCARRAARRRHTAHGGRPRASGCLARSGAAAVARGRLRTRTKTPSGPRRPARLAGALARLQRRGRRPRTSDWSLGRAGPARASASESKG
Description: as §1
Male guinea pigs (Hartley strain, Glenn Carr, Columbus, OH) weighing between 400 and 700 grams were reserpinized (5 mg/kg, i.p.) 12-16 hours before experiments. Animals were sacrificed by a sharp blow to the head and the atria and trachea were quickly removed by standard procedures (The Staff, University of Edinburgh, "Pharmacological Experiments on Isolated Preparation", Livingston, London, pp. 104-111, 1970). Trachea were spirally cut into 2 to 4 matched strips (Constantine, J. Pharm. Pharmac., 17: 34-35, 1965). […]
as §2

[7] = test system: human platelets (U46619-induced aggregation); assay: inhibition of U46619-induced platelet aggregation in presence of aspirin, human platelet-rich plasma; assay type: cell-based
Description: (§3) The antiaggregatory and antisecretory activity on human platelets was determined by evaluating the in vitro aggregation and [^14 C]serotonin secretion in human platelet preparations. Blood was taken by venipuncture from normal human volunteers who were reported to be free of medication for at least 10 days before blood drawing. Venous blood samples were mixed with acid-citrate dextrose solution (9:1) and centrifuged at 120×g for 15 minutes at room temperature to obtain platelet-rich plasma, PRP, (Huzoor-Akbar et al., Biochem. Pharmacol., 30: 2013-2020, 1981). The PRP was transferred to polypropylene tubes and stored under an atmosphere of 8% CO2. The remaining blood was centrifuged at 1000×g for 10 minutes to obtain platelet-poor plasma. […] Platelet counts varied between 280,000 to 320,000 per cmm or were adjusted to 300,000 per cmm for the aggregation and secretion experiments. All studies were conducted within 2 hours after PRP recovery.
(§4) For aggregation studies, 0.5 ml of PRP was incubated with drug or vehicle (1-5 μl) for 1 minute at 37° C. before the initiation of aggregation with inducers. […] In all experiments, the minimum concentration of inducer (adenosine diphosphate ADP; epinephrine, E; 15S-hydroxy-11α,9α-epoxymethanoprosta-5Z,13E-dienoic acid, U46619; collagen; and arachidonic acid, AA) which caused maximal irreversible aggregation within each PRP preparation was used. Aggregation was monitored for 4 to 6 minutes after the addition of an inducer and data were presented as a percentage inhibition of either slope or maximal light transmittance changes in the presence of varying drug concentrations.

[8] = test system: human platelets (U46619-induced serotonin secretion); assay: inhibition of U46619-induced serotonin secretion in presence of aspirin, human platelet-rich plasma; assay type: cell-based
Description: as §3, §4
(§5) Secretion data were calculated as the net increase of serotonin released into the supernatant by each inducer and expressed as a percentage of the total radioactivity in platelets Mayo et al., Biochem. Pharmacol., 30: 2237-2241, 1981. The effect of compounds on serotonin release was expressed as the percentage of inhibition of the maximum release by each inducer and plotted against the log molar concentrations of each agent.

[9] = test system: human platelets (arachidonic acid-induced aggregation); assay: inhibition of arachidonic acid-induced platelet aggregation, human platelet-rich plasma; assay type: cell-based
Description: as §3, §4

[10] = test system: human platelets (arachidonic acid-induced serotonin secretion); assay: inhibition of arachidonic acid-induced serotonin secretion, human platelet-rich plasma; assay type: cell-based
Description: as §3, §4, §5

[11] = test system: human platelets (collagen-induced aggregation); assay: inhibition of collagen-induced platelet aggregation, human platelet-rich plasma; assay type: cell-based
Description: as §3, §4

[12] = test system: human platelets (collagen-induced serotonin secretion); assay: inhibition of collagen-induced serotonin secretion, human platelet-rich plasma; assay type: cell-based
Description: as §3, §4, §5

[13] = test system: human platelets (ADP-induced aggregation); assay: inhibition of the secondary phase of ADP-induced platelet aggregation, human platelet-rich plasma; assay type: cell-based
Description: as §3, §4

[14] = test system: human platelets (ADP-induced serotonin secretion); assay: inhibition of ADP-induced serotonin secretion, human platelet-rich plasma; assay type: cell-based
Description: as §3, §4, §5

[15] = test system: human platelets (epinephrine-induced aggregation); assay: inhibition of the secondary phase of epinephrine-induced platelet aggregation, human platelet-rich plasma; assay type: cell-based
Description: as §3, §4

[16] = test system: human platelets (epinephrine-induced serotonin secretion); assay: inhibition of epinephrine-induced serotonin secretion, human platelet-rich plasma; assay type: cell-based
Description: as §3, §4, §5

[17] = test system: human platelets; assay: human platelet aggregation and serotonin release, inducers taken together; assay type: cell-based; conditions: each inducer
Description: as §3, §4, §5

[18] = phenol acidities (pKa) determined spectrophotometrically; assay type: physicochemical; conditions: phenol; tris(hydroxymethyl)aminomethane buffer; UV
Description: Phenol acidities (pKa) were determined spectrophotometrically, as described by Albert et al., "The determination of Ionization Constants" 3rd Ed., Chapman and Hall, London and New York, 1984, by measuring the absorption as a function of pH in tris(hydroxymethyl)aminomethane buffer. Since the catechols tended to oxidize in basic media the buffers were degassed and flushed with argon prior to use.

[19] = test system: human platelets; conditions: in vitro, background; cited from earlier work
[20] = read-out: IC50 platelet aggregation
[21] = read-out: pIC50 platelet aggregation (converted)
[22] = read-out: IC50 serotonin secretion
[23] = read-out: pIC50 serotonin secretion (converted)
[24] = read-out: IC50 platelet aggregation (secondary phase)
[25] = read-out: pIC50 platelet aggregation (secondary phase) (converted)

`CCCCC[C@H](O)/C=C/[C@@H]1[C@@H](C/C=C\CCCC(=O)O)[C@H]2CO[C@@H]1C2` [Compound U46619, 15S-hydroxy-11α,9α-epoxymethanoprosta-5Z,13E-dienoic acid, reference compound] showed an EC50 [1] of 6.76 nM.
In the case of `NCC(O)c1ccc(O)c(O)c1F` (stereo not shown), the “adrenergic receptor activity/selectivity” value [2] is given as “selective β-adrenergic agonist”.
In the case of `CC(C)NCC(O)c1ccc(O)c(O)c1` (stereo not shown) [isoproterenol], the duration of action ([3]; averaging) is given as 1.5 to 2 h, the onset of action ([3]; bronchodilator, inhalation) is given as 2 to 5 min and the “adrenergic receptor activity/selectivity” value [2] is given as “possesses little tissue selectivity and stimulates both β1 - and β2 -adrenergic receptors”. For the same molecule, the “side effects” value [4] was “undesirable tachycardia, increase in cardiac output and an elevation in blood pressure”.
For `CNC[C@H](O)c1ccc(O)c(O)c1` [R-(-)-epinephrine], the “adrenergic receptor activity/selectivity” value [2] is given as “more active than S-(+)-epinephrine on both α- and β-adrenergic receptors”.
In the case of `COc1cc(CC2NCCc3cc(O)c(O)cc32)cc(OC)c1OC` (stereo not shown) [TMQ, trimetoquinol], the EC50 [5] is reported as 57.5 nM, the “agonist activity on tracheal relaxation” value [5] is reported as “nearly equally active as an agonist on tracheal relaxation” and the Emax ([5]; guinea pig, read-out: IAR ± SEM (intrinsic activity ratio)) is reported as 95 ± 1%. The Emax [6] was 100%, the IC50 [7, 20] was 440 nM and the IC50 [7, 21] was 437 nM. It also gave an IC50 [8, 22] of 720 nM, an IC50 [8, 23] of 692 nM and an IC50 [9, 20] of 1040 nM. For the same molecule, the IC50 [9, 21] was 1050 nM, the IC50 [10, 22] was 1330 nM and the IC50 [10, 23] was 1260 nM. The IC50 [11, 20] was 930 nM, the IC50 [11, 21] was 933 nM and the IC50 [12, 22] was 620 nM. For the same molecule, the IC50 [12, 23] was 589 nM, the IC50 [13, 24] was 340 nM and the IC50 [13, 25] was 269 nM. The IC50 [14, 22] was 230 nM, the IC50 [14, 23] was 200 nM and the IC50 [15, 24] was 1730 nM. The IC50 [15, 25] was 1660 nM, the IC50 [16, 22] was 1150 nM and the IC50 [16, 23] was 1020 nM. The “inhibition of aggregation and serotonin release” value [17] was “inhibitors of aggregation and serotonin release by each inducer”, the pKa [18] was 8.77 ± 0.15 and the “effect on arachidonic acid-mediated platelet aggregation” value [19] was “blocks endoperoxide/thromboxane arachidonic acid-mediated in vitro aggregation of human platelets”. For the same molecule, the “side effects” value [4] was “undesirable effect of also increasing the β1 -adrenergic activity which stimulates the heart”.
In the case of `CNC[C@H](O)c1ccc(O)c(O)c1` [epinephrine], the “adrenergic receptor activity/selectivity” value [2] is listed as “stimulates both α- and β-adrenergic receptors to about the same degree” and the “side effects” value [4] is listed as “tachycardia, elevated blood pressure, headache, and tremors”.
For `NCCc1cc(O)c(O)cc1F` [6-fluoro-dopamine], the “adrenergic receptor activity/selectivity” value [2] is given as “do not show selectivity for adrenergic receptors”.
In the case of `NCCc1ccc(O)c(O)c1F` [2-fluoro-dopamine], the “adrenergic receptor activity/selectivity” value [2] is listed as “do not show selectivity for adrenergic receptors”.
In the case of `NCC(O)c1cc(O)c(O)cc1F` (stereo not shown) [6-fluoro analog of norepinephrine], the “adrenergic receptor activity/selectivity” value [2] is given as “selective β-adrenergic agonist”.
